This note sets out measurements from ChEMBL document CHEMBL5390237, “Discovery of Selective Histone Deacetylase 1 and 2 Inhibitors: Screening of a Focused Library Constructed by Click Chemistry, Kinetic Binding Analysis, and Biological Evaluation” (J Med Chem, 2023).

In the test the target is Histone deacetylase 2 (Homo sapiens, UniProt Q92769). Description: Inhibition of full-length recombinant human C-terminal GST tagged HDAC2 expressed in Sf9 insect cells using aminoluciferin peptide substrate at 100 nM preincubated for 3 hrs followed by substrate addition and measured after 30 mins by HDAC-Glo I/II chemiluminescence assay. To be noted: time 3.5 hrs.
Histone deacetylase 2, sequence (Q92769 whole entry): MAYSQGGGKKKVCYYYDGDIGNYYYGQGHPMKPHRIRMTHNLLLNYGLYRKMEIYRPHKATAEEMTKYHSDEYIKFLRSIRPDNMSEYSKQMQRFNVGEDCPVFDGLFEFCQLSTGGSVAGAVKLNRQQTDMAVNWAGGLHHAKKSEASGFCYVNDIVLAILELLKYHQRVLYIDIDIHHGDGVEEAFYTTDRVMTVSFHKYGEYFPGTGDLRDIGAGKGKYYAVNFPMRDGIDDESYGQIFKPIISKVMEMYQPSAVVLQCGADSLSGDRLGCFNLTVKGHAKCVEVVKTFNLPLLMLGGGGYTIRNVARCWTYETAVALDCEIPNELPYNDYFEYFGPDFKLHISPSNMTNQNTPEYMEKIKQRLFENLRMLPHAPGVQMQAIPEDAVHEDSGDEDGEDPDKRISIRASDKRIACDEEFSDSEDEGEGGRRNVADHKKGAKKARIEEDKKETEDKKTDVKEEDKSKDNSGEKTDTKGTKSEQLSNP
The inhibition is the drop in the measured response relative to a control, in per cent. Turning to `Nc1ccc(-c2cccs2)cc1NC(=O)c1cccc(-c2cn(CCc3cccc(F)c3)nn2)c1`, the inhibition was 0%.
The result for `Nc1ccc(-c2cccs2)cc1NC(=O)c1ccc(-c2cn(CCc3ccccc3[N+](=O)[O-])nn2)s1` reads 16%; that for `CCc1ccc(Cn2cc(C(=O)Nc3cc(-c4ccsc4)ccc3N)nn2)cc1`, 0%; that for `Nc1ccc(-c2cccs2)cc1NC(=O)c1cccc(-c2cn(CCc3ccc(Cl)cc3)nn2)c1`, 0%.
Turning to `COc1ccc(CCn2cc(CCC(=O)Nc3cc(-c4cccs4)ccc3N)nn2)cc1`, the inhibition turned out to be 21%.
In the case of `Nc1ccc(-c2cccnc2)cc1NC(=O)CCc1cn(-c2ccc(O)cc2)nn1`, the inhibition worked out at 0%.
The result for `Cc1ccccc1CCn1cc(CCC(=O)Nc2cc(-c3ccccc3)ccc2N)nn1` reads 4%; that for `Nc1ccc(-c2cccs2)cc1NC(=O)c1ccc(-c2cn(CCc3ccccc3Cl)nn2)s1`, 5%; that for `Nc1ccc(-c2ccsc2)cc1NC(=O)CCc1cn(CCCCCCCC(=O)O)nn1`, 1%.
The result for `Nc1ccc(-c2ccsc2)cc1NC(=O)CCc1cn(-c2ccccc2-c2ccccc2)nn1` reads 2%; that for `Nc1ccc(-c2cccs2)cc1NC(=O)CCc1cn(Cc2ccc(Oc3ccccc3)cc2)nn1`, 6%.
On to `Nc1ccc(-c2cccnc2)cc1NC(=O)CCc1cn(CS(=O)(=O)c2ccccc2)nn1`, for which the inhibition was 4%.
Consider `Nc1ccc(-c2ccc(F)cc2)cc1NC(=O)CCc1cn(CCc2ccccc2Cl)nn1`, for which the inhibition came out at 4%.
`Nc1ccc(-c2cccs2)cc1NC(=O)c1cccc(-c2cn(CCCCCCCC(=O)O)nn2)c1`: the inhibition was determined as 3%.
The figure for `Nc1ccc(-c2cccs2)cc1NC(=O)CCc1cn(Cc2ccc3ccccc3c2)nn1` is 30%; for `Nc1ccc(-c2ccc(F)cc2)cc1NC(=O)CCc1cn(Cc2ccc(-c3ccccc3)cc2)nn1` it is 0%.
The figure for `COc1ccccc1CCn1cc(CCC(=O)Nc2cc(-c3ccsc3)ccc2N)nn1` is 20%.
`Nc1ccc(-c2cccs2)cc1NC(=O)c1cn(Cc2cccc3ccccc23)nn1`: the inhibition was 13%.
Regarding `Nc1ccc(-c2ccccc2)cc1NC(=O)c1cn(CCC2CCCCC2)nn1`, the inhibition was 0%.
The figure for `Nc1ccc(-n2cc(CCC(=O)Nc3cc(-c4cccs4)ccc3N)nn2)cc1` is 25%.
The result for `Nc1ccc(-c2cccs2)cc1NC(=O)CCc1cn(CCc2ccccc2)nn1` reads 26%; that for `CCc1ccc(Cn2cc(C(=O)Nc3cc(-c4cccs4)ccc3N)nn2)cc1`, 13%.
The result for `Nc1ccc(-c2ccc(F)cc2)cc1NC(=O)c1cn(/C=C/c2ccccc2)nn1` reads 3%.
In the case of `Nc1ccc(-c2ccccc2)cc1NC(=O)CCc1cn(CCc2cccc([N+](=O)[O-])c2)nn1`, the inhibition stood at 30%.
The result for `Nc1ccc(-c2ccsc2)cc1NC(=O)c1cn(Cc2cc3ccccc3s2)nn1` reads 0%; that for `Nc1ccc(-c2ccsc2)cc1NC(=O)c1cn(CCc2ccc(C(=O)O)cc2)nn1`, 18%; that for `Nc1ccc(-c2ccc(F)cc2)cc1NC(=O)c1cn(CCc2cccc(F)c2)nn1`, 0%.
In the case of `Nc1ccc(-c2ccsc2)cc1NC(=O)CCc1cn(CCc2ccc(C(F)(F)F)cc2)nn1`, the inhibition turned out to be 2%.
The figure for `Cc1ccc(CCn2cc(CCC(=O)Nc3cc(-c4cccs4)ccc3N)nn2)cc1` is 30%.
On to `Nc1ccc(-c2ccc(F)cc2)cc1NC(=O)c1cn(CCN2CCc3ccccc3C2)nn1`, for which the inhibition is 22%.
Turning to `Nc1ccc(-c2ccccc2)cc1NC(=O)CCc1cn(CC23CC4CC(CC(C4)C2)C3)nn1`, the inhibition was 0%.
On to `Nc1ccc(-c2ccsc2)cc1NC(=O)c1cn(Cc2ccc3ccccc3n2)nn1`, for which the inhibition turned out to be 19%.
As for `COc1ccc(Cn2cc(-c3ccc(C(=O)Nc4cc(-c5cccs5)ccc4N)cc3)nn2)cc1`, the inhibition came to 4%.
With `Nc1ccc(-c2cccnc2)cc1NC(=O)CCc1cn(CCCc2ccccc2)nn1`, the inhibition came out at 15%.
The result for `Nc1ccc(-c2cccs2)cc1NC(=O)c1cccc(-c2cn(CCC3CCCC3)nn2)c1` reads 0%; that for `Nc1ccc(-c2ccccc2)cc1NC(=O)CCc1cn(CS(=O)(=O)c2ccccc2)nn1`, 9%; that for `Nc1ccc(-c2ccccc2)cc1NC(=O)c1cn(CCc2cccc3ccccc23)nn1`, 0%.
For `Nc1ccc(-c2ccsc2)cc1NC(=O)CCc1cn(CCc2cccc3ccccc23)nn1`, the inhibition came out at 0%.
With `Nc1ccc(-c2cccs2)cc1NC(=O)c1cccc(-c2cn(CCc3ccccc3[N+](=O)[O-])nn2)c1`, the inhibition turned out to be 0%.
The result for `Nc1ccc(-c2cccs2)cc1NC(=O)c1cccc(-c2cn(CCN3CCc4ccccc4C3)nn2)c1` reads 20%; that for `Nc1ccc(-c2ccc(F)cc2)cc1NC(=O)c1cn(CCc2cccc(C(F)(F)F)c2)nn1`, 0%; that for `Nc1ccc(-c2cccs2)cc1NC(=O)c1ccc(-c2cn(CCC3CCCCC3)nn2)cc1`, 7%.
Consider `Nc1ccc(-c2cccs2)cc1NC(=O)CCc1cn(CCc2ccc(C(=O)O)cc2)nn1`, for which the inhibition was 35%.
Turning to `Nc1ccc(-c2cccs2)cc1NC(=O)c1cn(CCc2ccccc2C(F)(F)F)nn1`, the inhibition is 5%.
Consider `Nc1ccc(-c2cccs2)cc1NC(=O)c1ccc(-c2cn(Cc3ccc(C(=O)O)cc3)nn2)cc1`, for which the inhibition was determined as 42%.
For the compound `Nc1ccc(-c2cccs2)cc1NC(=O)c1cn(-c2ccc(I)cc2)nn1`, the inhibition turned out to be 0%.
The result for `Nc1ccc(-c2cccs2)cc1NC(=O)c1ccc(-c2cn(/C=C/c3ccccc3)nn2)cc1` reads 0%.
As for `Nc1ccc(-c2ccsc2)cc1NC(=O)c1cn(/C=C/c2ccccc2)nn1`, the inhibition is 5%.
In the case of `Cc1csc(CCn2cc(CCC(=O)Nc3cc(-c4cccnc4)ccc3N)nn2)n1`, the inhibition is 6%.
The result for `Nc1ccc(-c2ccc(F)cc2)cc1NC(=O)c1cn(Cc2ccc(-c3ccccc3)cc2)nn1` reads 0%; that for `Nc1ccc(-c2cccnc2)cc1NC(=O)CCc1cn(CCC2CCCC2)nn1`, 0%; that for `Nc1ccc(-c2cccs2)cc1NC(=O)c1ccc(-c2cn(CCC3CCCCC3)nn2)s1`, 0%.
Consider `Nc1ccc(-c2ccccc2)cc1NC(=O)c1cn(CCc2ccccc2C(F)(F)F)nn1`, for which the inhibition was 0%.
`Nc1ccc(-c2cccs2)cc1NC(=O)CCc1cn(CCCCCCCC(=O)O)nn1`: the inhibition was found to be 4%.
`Nc1ccc(-c2ccccc2)cc1NC(=O)c1cn(CCc2ccc(Cl)cc2)nn1`: the inhibition was 0%.
Consider `Nc1ccc(-c2cccs2)cc1NC(=O)c1cccc(-c2cn(Cc3nc4ccccc4[nH]3)nn2)c1`, for which the inhibition worked out at 32%.
For the compound `Cc1ccccc1CCn1cc(CCC(=O)Nc2cc(-c3ccsc3)ccc2N)nn1`, the inhibition worked out at 14%.
For the compound `Nc1ccc(-c2cccs2)cc1NC(=O)c1cn(CC(=O)Nc2ccc(F)cc2)nn1`, the inhibition was 0%.
The figure for `COc1ccc(Cn2cc(C(=O)Nc3cc(-c4ccccc4)ccc3N)nn2)cc1` is 6%; for `Nc1ccc(-c2cccs2)cc1NC(=O)c1cccc(-c2cn(CCC3CCCCC3)nn2)c1` it is 0%.
On to `Nc1ccc(-c2cccs2)cc1NC(=O)c1cccc(-c2cn(-c3ccc(Br)cc3)nn2)c1`, for which the inhibition is 0%.
Regarding `Nc1ccc(-c2cccs2)cc1NC(=O)c1ccc(-c2cn(Cc3ccc4ccccc4c3)nn2)s1`, the inhibition is 3%.
On to `Nc1ccc(-c2cccs2)cc1NC(=O)CCc1cn(CCN2CCOCC2)nn1`, for which the inhibition is 1%.
Turning to `Nc1ccc(-c2cccs2)cc1NC(=O)c1ccc(-c2cn(CCc3cccc(C(F)(F)F)c3)nn2)cc1`, the inhibition turned out to be 3%.
Regarding `Nc1ccc(-c2cccs2)cc1NC(=O)c1ccc(-c2cn(/C=C/c3ccccc3)nn2)s1`, the inhibition was 5%.
As to `Nc1ccc(-c2cccs2)cc1NC(=O)c1cccc(-c2cn(Cc3ccc4ccccc4n3)nn2)c1`, the inhibition is 4%.
For `Nc1ccc(-c2cccs2)cc1NC(=O)c1ccc(-c2cn(CCc3cccc(C(F)(F)F)c3)nn2)s1`, the inhibition came to 0%.
The figure for `Nc1ccc(-c2ccsc2)cc1NC(=O)c1cn(CCc2cccc(F)c2)nn1` is 0%; for `COc1ccc(Cn2cc(CCC(=O)Nc3cc(-c4ccccc4)ccc3N)nn2)cc1` it is 6%; for `Nc1ccc(-c2cccs2)cc1NC(=O)c1cccc(-c2cn(CCc3ccccc3)nn2)c1` it is 17%.
Regarding `Nc1ccc(-c2ccccc2)cc1NC(=O)c1cn(-c2ccccc2-c2ccccc2)nn1`, the inhibition was found to be 0%.
As for `Nc1ccc(-c2cccs2)cc1NC(=O)c1cccc(-c2cn(-c3ccccc3-c3ccccc3)nn2)c1`, the inhibition turned out to be 0%.
Take `Cc1ccc(CCn2cc(C(=O)Nc3cc(-c4ccccc4)ccc3N)nn2)cc1`: the inhibition amounted to 2%.
Turning to `Nc1ccc(-c2cccnc2)cc1NC(=O)CCc1cn(CCc2ccsc2)nn1`, the inhibition came out at 1%.
The figure for `Nc1ccc(-c2ccsc2)cc1NC(=O)CCc1cn(-c2ccc(O)cc2)nn1` is 16%.
Consider `Nc1ccc(-c2ccc(F)cc2)cc1NC(=O)c1cn(Cc2ccc(C(=O)O)cc2)nn1`, for which the inhibition came to 65%.
For the compound `Nc1ccc(-c2cccs2)cc1NC(=O)c1ccc(-c2cn(CCN3CCc4ccccc4C3)nn2)s1`, the inhibition was determined as 32%.
For `Nc1ccc(-c2cccs2)cc1NC(=O)CCc1cn(CCCCC(=O)O)nn1`, the inhibition came out at 2%.
As for `Nc1ccc(-c2cccs2)cc1NC(=O)c1ccc(-c2cn(CCc3ccccc3)nn2)s1`, the inhibition worked out at 40%.
On to `Nc1ccc(-c2ccsc2)cc1NC(=O)c1cn(CCN2CCOCC2)nn1`, for which the inhibition is 0%.
The result for `Cc1cccc(C)c1NC(=O)Cn1cc(CCC(=O)Nc2cc(-c3ccsc3)ccc2N)nn1` reads 18%.
The result for `COc1ccc(CCn2cc(CCC(=O)Nc3cc(-c4cccnc4)ccc3N)nn2)cc1` reads 21%; that for `Nc1ccc(-c2ccsc2)cc1NC(=O)c1cn(Cc2cccc(C(=O)O)c2)nn1`, 0%.
Consider `Nc1ccc(-c2cccs2)cc1NC(=O)c1ccc(-c2cn(CCc3ccc(F)cc3)nn2)s1`, for which the inhibition was 18%.
